Measurements published in article PMC10742973 (International Journal of Molecular Sciences, 2023).

Biological target: T1, MtMetAP1c (Mycobacterium tuberculosis, UniProt P9WK19)
T1 construct: gene map
Experiment: biochemical
Settings: read-out: IC50 (μM) / MtMetAP1c + 100 μM CoCl2

T1 sequence (P9WK19 whole entry): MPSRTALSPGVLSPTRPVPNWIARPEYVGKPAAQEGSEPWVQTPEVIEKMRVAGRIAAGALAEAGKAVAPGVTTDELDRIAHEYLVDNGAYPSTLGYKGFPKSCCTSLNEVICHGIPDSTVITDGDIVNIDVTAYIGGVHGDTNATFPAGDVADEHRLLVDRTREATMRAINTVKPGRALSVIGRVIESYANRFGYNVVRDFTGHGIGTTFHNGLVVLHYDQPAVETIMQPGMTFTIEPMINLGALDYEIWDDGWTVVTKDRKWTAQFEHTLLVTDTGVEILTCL

Cc1nc(-c2ccccn2)nc(N(C)Cc2ccccc2)c1Cl [OJT008, N-benzyl-5-chloro-N,6-dimethyl-2-pyridin-2-ylpyrimidin-4-amine]
IC50: 11.8 ± 1.3 µM
